Here are results for 21 molecules from ChEMBL document CHEMBL5149992, “Discovery, Optimization, and Evaluation of Quinazolinone Derivatives with Novel Linkers as Orally Efficacious Phosphoinositide-3-Kinase Delta Inhibitors for Treatment of Inflammatory Diseases” (J Med Chem, 2021).

The target of test [1] is T1, Phosphatidylinositol 4,5-bisphosphate 3-kinase catalytic subunit delta isoform (Homo sapiens) (UniProt O00329).
T1 sequence (whole entry): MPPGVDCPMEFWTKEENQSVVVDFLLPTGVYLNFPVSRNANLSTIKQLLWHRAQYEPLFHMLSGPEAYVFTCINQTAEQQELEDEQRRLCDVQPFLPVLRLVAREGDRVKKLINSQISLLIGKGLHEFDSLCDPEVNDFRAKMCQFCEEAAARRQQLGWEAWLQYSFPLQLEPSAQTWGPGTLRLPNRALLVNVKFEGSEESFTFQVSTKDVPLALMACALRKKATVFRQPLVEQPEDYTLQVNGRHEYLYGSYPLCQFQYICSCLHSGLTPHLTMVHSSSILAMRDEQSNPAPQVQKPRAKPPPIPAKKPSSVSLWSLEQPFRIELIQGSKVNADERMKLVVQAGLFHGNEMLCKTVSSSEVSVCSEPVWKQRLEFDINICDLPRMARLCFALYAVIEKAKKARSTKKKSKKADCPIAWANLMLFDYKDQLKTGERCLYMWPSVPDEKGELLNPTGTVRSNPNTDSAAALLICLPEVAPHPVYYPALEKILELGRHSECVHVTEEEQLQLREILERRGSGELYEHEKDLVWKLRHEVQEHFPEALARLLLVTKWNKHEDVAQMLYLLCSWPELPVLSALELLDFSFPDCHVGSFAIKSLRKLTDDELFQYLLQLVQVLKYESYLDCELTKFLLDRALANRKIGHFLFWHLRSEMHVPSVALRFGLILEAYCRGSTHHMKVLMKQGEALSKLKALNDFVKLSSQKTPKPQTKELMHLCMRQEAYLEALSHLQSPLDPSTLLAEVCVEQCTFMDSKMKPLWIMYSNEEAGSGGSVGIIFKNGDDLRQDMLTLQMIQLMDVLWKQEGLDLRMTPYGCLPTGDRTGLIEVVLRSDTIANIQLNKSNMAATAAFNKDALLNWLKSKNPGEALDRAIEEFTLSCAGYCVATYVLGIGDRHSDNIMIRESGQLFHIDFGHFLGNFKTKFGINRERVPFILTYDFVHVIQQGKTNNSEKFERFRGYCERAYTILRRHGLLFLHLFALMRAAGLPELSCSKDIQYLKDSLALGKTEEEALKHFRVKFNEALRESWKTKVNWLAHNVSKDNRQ
Description: Inhibition of PI3Kdelta (unknown origin) at 0.1 uM using phosphatidylinositol as substrate incubated for 30 mins in presence of ATP by HTRF based assay relative to control. A general note: In TR-FRET formats the signal depends on donor and acceptor labels being close together.

For test [2], the target named is T1, Phosphatidylinositol 4,5-bisphosphate 3-kinase catalytic subunit delta isoform (Homo sapiens). The test can be described thus: Inhibition of PI3Kdelta (unknown origin) at 0.01 uM using phosphatidylinositol as substrate incubated for 30 mins in presence of ATP by HTRF based assay relative to control.

As for `O=c1c2c(Cl)cccc2nc([C@@H]2CC3(CC3)CN2c2ncnc3[nH]cnc23)n1-c1ccccc1`, the inhibition was 32% in test [1] and 3% in test [2].
In the case of `O=c1c2c(Cl)cccc2nc([C@@H]2CC3(CC3)CN2c2ncnc3[nH]ccc23)n1-c1ccccc1`, the inhibition in test [1] was found to be 8%; in test [2], 2%.
Regarding `O=c1c2c(Cl)cccc2nc([C@@H]2C[C@@H]3CCCC[C@@H]3N2c2nc(Cl)nc3[nH]cnc23)n1-c1ccccc1`, the results for the inhibition in test [1] and in test [2] were 1% and -1%, respectively.
Turning to `N#Cc1cccnc1N1[C@H](c2nc3cccc(Cl)c3c(=O)n2-c2ccccc2)C[C@@H]2CCCC[C@@H]21`, the inhibition in test [1] is 0%; in test [2], -1%.
On the same counts, the results for `C=CCO[C@@H]1C[C@@H](c2nc3cccc(Cl)c3c(=O)n2-c2ccccc2)N(c2ncnc3[nH]ccc23)C1` are 7% and 2%.
For `O=c1c2c(Cl)cccc2nc([C@@H]2C[C@@H]3CCCC[C@@H]3N2c2ncnc3[nH]cnc23)n1-c1ccccc1`, in that order: 8% and 0%.
In the case of `O=c1c2c(Cl)cccc2nc([C@@H]2C[C@@H]3CCCC[C@@H]3N2c2ncnc3[nH]ccc23)n1-c1ccccc1`, the inhibition came out at 3% in test [1] and 1% in test [2].
For `C=C1C[C@@H](c2nc3cccc(Cl)c3c(=O)n2-c2ccccc2)N(c2nc(N)nc3[nH]cnc23)C1`, in that order: 96% and 52%.
Turning to `C=CCO[C@@H]1C[C@@H](c2nc3cccc(Cl)c3c(=O)n2-c2ccccc2)N(c2ncnc3[nH]cnc23)C1`, the inhibition worked out at 8% in test [1] and 1% in test [2].
For `O=c1c2c(Cl)cccc2nc([C@@H]2CC(F)(F)CN2c2ncnc3[nH]ccc23)n1-c1ccccc1`, in that order: 26% and 4%.
On the same counts, the results for `C=CCO[C@@H]1C[C@@H](c2nc3cccc(Cl)c3c(=O)n2-c2ccccc2)N(c2nc(N)nc3[nH]cnc23)C1` are 42% and 7%.
For `Nc1nc(N2CC(F)(F)C[C@H]2c2nc3cccc(Cl)c3c(=O)n2-c2ccccc2)c2nc[nH]c2n1`, in that order: 50% and 11%.
Consider `C=C1C[C@@H](c2nc3cccc(Cl)c3c(=O)n2-c2ccccc2)N(c2ncnc3[nH]ccc23)C1`, for which the inhibition was 59% in test [1] and 12% in test [2].
For `Nc1nc(N2[C@H](c3nc4cccc(Cl)c4c(=O)n3-c3ccccc3)C[C@@H]3CCCC[C@@H]32)c2nc[nH]c2n1`, in that order: 6% and 2%.
On to `Cc1ccnc(N2[C@H](c3nc4cccc(Cl)c4c(=O)n3-c3ccccc3)C[C@@H]3CCCC[C@@H]32)n1`, for which the inhibition in test [1] and in test [2] was -1% throughout.
Take `O=c1c2c(Cl)cccc2nc([C@@H]2C[C@@H]3CCCC[C@@H]3N2c2ncnc3[nH]ncc23)n1-c1ccccc1`: the inhibition in test [1] and in test [2] was -3% each time.
Consider `O=c1c2c(Cl)cccc2nc([C@@H]2C[C@@H]3CCCC[C@@H]3N2c2nccc(Cl)n2)n1-c1ccccc1`, for which the inhibition in test [1] and in test [2] was -2% in each case.
`Nc1nc(N2CC3(CC3)C[C@H]2c2nc3cccc(Cl)c3c(=O)n2-c2ccccc2)c2nc[nH]c2n1`: the inhibition came to 44% in test [1] and 8% in test [2].
On the same counts, the results for `C=C1C[C@@H](c2nc3cccc(Cl)c3c(=O)n2-c2ccccc2)N(c2ncnc3[nH]cnc23)C1` are 75% and 28%.
On the same counts, the results for `Nc1ccnc(N2[C@H](c3nc4cccc(Cl)c4c(=O)n3-c3ccccc3)C[C@@H]3CCCC[C@@H]32)n1` are -3% and -1%.
`O=c1c2c(Cl)cccc2nc([C@@H]2CC(F)(F)CN2c2ncnc3[nH]cnc23)n1-c1ccccc1`: the inhibition in test [1] was found to be 34%; in test [2], 4%.

Usually inhibition stands for the relative decrease from the control value, in per cent.
